Measurements: article PMC9372747, “Genome-wide analysis of UGT gene family identified key gene for the biosynthesis of bioactive flavonol glycosides in Epimedium pubescens Maxim” (Synthetic and Systems Biotechnology, 2022)

System: T1, EpGT60
T1 construct: not anchored to any chromosome
Test: UPLC of rhamnosylated product, GraphPad Prism fit
Type: biochemical, Epimedium pubescens
Details: 4 mM UDP-rhamnose, 1 mM DTT, 50 mM Tris-HCl pH 7.0, 30 °C, 1 h; substrate 100-500 μM

Km: 289 µM
Compound: CC(C)=CCc1c(O)cc(O)c2c(=O)c(O)c(-c3ccc(O)cc3)oc12 [8-prenylkaempferol]
